Assay results: ChEMBL document CHEMBL4382234, “Fluoroquinolone-isatin hybrids and their biological activities” (Eur J Med Chem, 2019)
In brackets after ≈: the same amount, converted by molar mass.

Columns and labels:
[1] = tested on: Mycobacterium tuberculosis; assay: Potency index, ratio of isoniazid MIC to test compound MIC for Mycobacterium tuberculosis H37Rv; assay type: functional
[2] = tested on: Mycobacterium tuberculosis; assay: Potency index, ratio of rifampicin MIC to test compound MIC for Mycobacterium tuberculosis H37Rv; assay type: functional
[3] = tested on: Mycobacterium tuberculosis; assay: Antimycobacterial activity against Mycobacterium tuberculosis H37Rv after 3 to 7 days by rapid direct susceptibility test; assay type: functional
[4] = tested on: HeLa; assay: Anticancer activity against human HeLa cells after 48 hrs by MTT assay; assay type: functional, cell-based
[5] = tested on: SW480; assay: Anticancer activity against human SW480 cells after 48 hrs by MTT assay; assay type: functional, cell-based; settings: SW480, 48 h
[6] = tested on: A549; assay: Anticancer activity against human A549 cells after 48 hrs by MTT assay; assay type: functional, cell-based; settings: A549, 48 h
[7] = tested on: HepG2; assay: Anticancer activity against human HepG2 cells after 48 hrs by MTT assay; assay type: functional, cell-based; settings: HepG2, 48 h
[8] = tested on: Mycobacterium tuberculosis; assay: Potency index, ratio of gatifloxacin MIC to test compound MIC for Mycobacterium tuberculosis H37Rv; assay type: functional
[9] = tested on: Vibrio cholerae; assay: Antibacterial activity against Vibrio cholerae by agar dilution method; assay type: functional
[10] = tested on: Pseudomonas aeruginosa; assay: Antibacterial activity against Pseudomonas aeruginosa by agar dilution method; assay type: functional
[11] = tested on: Shigella flexneri; assay: Antibacterial activity against Shigella flexneri by agar dilution method; assay type: functional
[12] = tested on: Klebsiella pneumoniae; assay: Antibacterial activity against Klebsiella pneumoniae by agar dilution method; assay type: functional
[13] = tested on: Staphylococcus aureus; assay: Antibacterial activity against Staphylococcus aureus by agar dilution method; assay type: functional
[14] = tested on: Staphylococcus epidermidis; assay: Antibacterial activity against Staphylococcus epidermidis by agar dilution method; assay type: functional
[15] = tested on: Salmonella typhi; assay: Antibacterial activity against Salmonella typhi by agar dilution method; assay type: functional, Salmonella enterica subsp. enterica serovar Typhi; settings: Salmonella enterica
[16] = tested on: Escherichia coli; assay: Antibacterial activity against Escherichia coli by agar dilution method; assay type: functional
[17] = tested on: Citrobacter freundii; assay: Antibacterial activity against Citrobacter freundii by agar dilution method; assay type: functional
[18] = tested on: Mycobacterium tuberculosis; assay: Antitubercular activity against Mycobacterium tuberculosis infected in IFNgamma-deficient C57BL/6 mouse assessed bacterial load in spleen at 25 mg/kg administered once daily for 8 days measured 28 days post infection; assay type: functional
[19] = tested on: Mycobacterium tuberculosis; assay: Antitubercular activity against Mycobacterium tuberculosis H37Rv by microplate alamar blue assay; assay type: functional
[20] = tested on: Mycobacterium tuberculosis; assay: Antitubercular activity against Mycobacterium tuberculosis infected in IFNgamma-deficient C57BL/6 mouse assessed bacterial load in lung at 25 mg/kg administered once daily for 8 days measured 28 days post infection; assay type: functional
[21] = tested on: Escherichia coli; assay: Antibacterial activity against Escherichia coli NCTC 10418 infected in po dosed CF mouse measured after 1 week; assay type: functional; settings: NCTC 10418, po, 168 h
[22] = tested on: Escherichia coli; assay: Potency index, ratio of norfloxacin ED50 to test compound ED50 for antibacterial activity against Escherichia coli NCTC 10418 infected in po dosed CF mouse; assay type: functional

Compound | IC50 [4] | IC50 [5] | IC50 [6] | IC50 [7] | MIC [9] | MIC [10] | MIC [11] | MIC [12] | MIC [13] | MIC [14] | MIC [15] | MIC [16] | MIC [17] | other results
CO/N=C1/C(=O)N(CCn2cc(CN3CCC[C@H]4CN(c5c(F)cc6c(=O)c(C(=O)O)cn(C7CC7)c6c5OC)C[C@H]43)nn2)c2ccccc21 | – | – | – | – | – | – | – | – | – | – | – | – | – | Ratio [1]: >1024; Ratio [2]: 256; MIC [3]: 0.1 µg/mL (≈ 0.146 µM)
COc1ncnc(NS(=O)(=O)c2ccc(/N=C3\C(=O)N(CN4C(C)CN(c5c(F)c(N)c6c(=O)c(C(=O)O)cn(C7CC7)c6c5F)CC4C)c4ccccc43)cc2)c1OC (stereo not drawn) | 18.3 to 33.6 µg/mL (≈ 21.7 to 39.8 µM) | 18.3 to 33.6 µg/mL (≈ 21.7 to 39.8 µM) | 18.3 to 33.6 µg/mL (≈ 21.7 to 39.8 µM) | 18.3 to 33.6 µg/mL (≈ 21.7 to 39.8 µM) | – | – | – | – | – | – | – | – | – | –
CO/N=C1/C(=O)N(CCCN2CCN(c3c(F)cc4c(=O)c(C(=O)O)cn(C5CC5)c4c3OC)CC2C)c2ccc(F)cc21 (stereo not drawn) | – | – | – | – | – | – | – | – | – | – | – | – | – | Ratio [2]: 2; Ratio [8]: 2; MIC [3]: 0.25 µg/mL (≈ 0.41 µM)
Cc1ccc2c(c1)C(=O)C(=O)N2CN1CCN(c2cc3c(cc2F)c(=O)c(C(=O)O)cn3C2CC2)CC1 | – | – | – | – | 0.1 to 0.5 µg/mL (≈ 0.198 to 0.991 µM) | 0.1 to 0.5 µg/mL (≈ 0.198 to 0.991 µM) | 0.1 to 0.5 µg/mL (≈ 0.198 to 0.991 µM) | 0.1 to 0.5 µg/mL (≈ 0.198 to 0.991 µM) | 0.1 to 0.5 µg/mL (≈ 0.198 to 0.991 µM) | 0.1 to 0.5 µg/mL (≈ 0.198 to 0.991 µM) | 0.1 to 0.5 µg/mL (≈ 0.198 to 0.991 µM) | 0.1 to 0.5 µg/mL (≈ 0.198 to 0.991 µM) | 0.1 to 0.5 µg/mL (≈ 0.198 to 0.991 µM) | –
O=C(O)c1cn(C2CC2)c2cc(N3CCNCC3)c(F)cc2c1=O [CIPROFLOXACIN] | – | – | – | – | 0.1 to 2.5 µg/mL (≈ 0.302 to 7.54 µM) | 0.1 to 2.5 µg/mL (≈ 0.302 to 7.54 µM) | 0.1 to 2.5 µg/mL (≈ 0.302 to 7.54 µM) | 0.1 to 2.5 µg/mL (≈ 0.302 to 7.54 µM) | 0.1 to 2.5 µg/mL (≈ 0.302 to 7.54 µM) | 0.1 to 2.5 µg/mL (≈ 0.302 to 7.54 µM) | 0.1 to 2.5 µg/mL (≈ 0.302 to 7.54 µM) | 0.1 to 2.5 µg/mL (≈ 0.302 to 7.54 µM) | 0.1 to 2.5 µg/mL (≈ 0.302 to 7.54 µM) | Activity [18]: 4.64 log10CFU; MIC [19]: 2 µg/mL (≈ 6.04 µM); Activity [20]: 6.82 log10CFU
CCn1cc(C(=O)O)c(=O)c2cc(F)c(N3CCN(CN4C(=O)C(=O)c5ccccc54)C(C)C3)c(F)c21 (stereo not drawn) | – | – | – | – | 0.25 to 2.5 µg/mL (≈ 0.49 to 4.9 µM) | 0.25 to 2.5 µg/mL (≈ 0.49 to 4.9 µM) | 0.25 to 2.5 µg/mL (≈ 0.49 to 4.9 µM) | 0.25 to 2.5 µg/mL (≈ 0.49 to 4.9 µM) | 0.25 to 2.5 µg/mL (≈ 0.49 to 4.9 µM) | 0.25 to 2.5 µg/mL (≈ 0.49 to 4.9 µM) | 0.25 to 2.5 µg/mL (≈ 0.49 to 4.9 µM) | 0.25 to 2.5 µg/mL (≈ 0.49 to 4.9 µM) | 0.25 to 2.5 µg/mL (≈ 0.49 to 4.9 µM) | –
CC1CN(c2c(F)c(N)c3c(=O)c(C(=O)O)cn(C4CC4)c3c2F)CC(C)N1CN1C(=O)C(=O)c2ccccc21 (stereo not drawn) | 18.3 to 50 µg/mL (≈ 33.2 to 90.7 µM) | 18.3 to 50 µg/mL (≈ 33.2 to 90.7 µM) | 18.3 to 50 µg/mL (≈ 33.2 to 90.7 µM) | 18.3 to 50 µg/mL (≈ 33.2 to 90.7 µM) | – | – | – | – | – | – | – | – | – | –
CCn1cc(C(=O)O)c(=O)c2cc(F)c(N3CCN(CN4C(=O)/C(=N\c5ncc(Cc6cc(OC)c(OC)c(OC)c6)c(N)n5)c5cc(Br)ccc54)CC3)cc21 | – | – | – | – | – | – | – | – | – | – | – | – | – | ED50 [21]: 1.62 mg/kg; Ratio [22]: 3.7
COc1cc(Cc2cnc(/N=C3\C(=O)N(CN4CCN(c5cc6c(cc5F)c(=O)c(C(=O)O)cn6C5CC5)CC4)c4ccc(F)cc43)nc2N)cc(OC)c1OC | – | – | – | – | – | – | – | – | – | – | – | – | – | Activity [18]: 4.08 log10CFU; MIC [19]: 0.78 µg/mL (≈ 0.999 µM); Activity [20]: 5.26 log10CFU
COc1cc(Cc2cnc(/N=C3\C(=O)N(CN4C(C)CN(c5c(F)c(N)c6c(=O)c(C(=O)O)cn(C7CC7)c6c5F)CC4C)c4ccccc43)nc2N)cc(OC)c1OC (stereo not drawn) | 18.3 to 50 µg/mL (≈ 22.2 to 60.7 µM) | 18.3 to 50 µg/mL (≈ 22.2 to 60.7 µM) | 18.3 to 50 µg/mL (≈ 22.2 to 60.7 µM) | 18.3 to 50 µg/mL (≈ 22.2 to 60.7 µM) | – | – | – | – | – | – | – | – | – | –
